From patent publication US20110212106A1, “HIV-1 NE[…] USES THEREOF” (priority 2010, published 2011)
pIC50: −log10 of the molar value. “And” between values parts separate entries of the source, which are not always exact repeats. Equal entries are not always repeated. Where two headings read alike, the source gives them in different places.

Columns and labels:
gp120 binding to sCD4 = conditions: inhibition of sCD4 binding
Protocol: Shown is mean±SD of triplicates.
The ability of mAbs to inhibit binding of sCD4 to gp120 or gp140 was evaluated by ELISA. Serial dilutions of mAbs were pre-incubated with gp120 (or gp140) and added to plates pre-coated with sCD4. After 1 h plates were washed and incubated with sheep polyclonal antibody D7324 (Aalto Bio-Reagents) followed by washing, incubation with AP-conjugated rabbit anti-sheep IgG antibody (Abcam, Cambridge, UK), extensive washing and detection using p-NPP (Sigma) as substrate.

[1] = system: HIV-1 pseudoviruses in HOS-CD4-CCR5 cells; conditions: for pIC50: Table 7, HOS
Protocol: To measure the neutralization activity of the isolated mAbs, luciferase-encoding virions pseudotyped with the desired HIV-1 Env proteins were used in a single-cycle infectivity assay, as previously described (Gorny M K, et al. (2002) J Virol 76: 9035-9045). Briefly, appropriate dilutions of the virion-containing culture supernatants were pre-incubated at 37° C. for 1 h with mAbs at various concentrations. The virus-mAb mixtures were added to HOS-CD4-CCR5 cells and incubated for 3 days at 37° C. A similar protocol was used for supernatants screening using TZM-bl cells (Li M, et al. (2006) J Virol 80: 11776-11790). The cells were then lysed with Britelite reagent (Perkin-Elmer) and the relative light units in the cell lysates were determined on a luminometer microplate reader (Veritas, Turner Biosystems). The 50% inhibitory dose (IC50) was defined as the sample concentration at which relative luminescence units were reduced 50% compared to virus control wells.
The neutralizing activity of the mAbs was measured using 20 pseudotyped HIV-1 primary isolate envs characterized by different sensitivity to neutralization (Li M, et al. (2005) J Virol 79: 10108-10125; Li M, et al. (2006) J Virol 80: 11776-11790). The mAbs were tested at a fixed concentration (100 μg/ml) in the luciferase based neutralization assay using HOS-CD4.R5 as target cells.

[2] = system: HIV-1 pseudoviruses in TZM-bl cells; conditions: for pIC50: Table 7, TZMbl
[3] = system: primary replication competent HIV-1 isolates

Substance: HJ16: human mAb from clade C donor, CD4 binding site proximal epitope; VH SEQ ID NO: 13, VL SEQ ID NO: 14
- plateau of heterologous inhibition in cross-competition of HJ16 and b12 (gp120; binding to immobilized gp120): approximately 80%
- Cross-competition with: 2G12 (gp120; inhibition of biotinylated mAb 2G12 binding to immobilized gp120): − (−, <50% inhibition)
- Cross-competition with: HGA9 (gp120; inhibition of biotinylated mAb HGA9 binding to immobilized gp120): − (−, <50% inhibition)
- Cross-competition with: HJ16 (gp120; inhibition of biotinylated mAb HJ16 binding to immobilized gp120): + (+,90-100% inhibition)
- Cross-competition with: sCD4 (gp120 binding to sCD4): + (+,90-100% inhibition)
- Neutralization HOS (number of isolates neutralized) ([1]; HOS-based assay, isolates neutralized/isolates tested): 10/20
- pseudoviruses neutralized out of the 20 pseudoviruses ([1]; mAb at fixed concentration 100 μg/ml): 10
- Percentage of HIV-1 isolates neutralized ([2]; All (92)): 36%
- Neutralization TZM-bl (number of isolates neutralized) ([2]; TZM-bl based assay, isolates neutralized/isolates tested): 33/92
- Percentage of HIV-1 isolates neutralized ([2]; Tier 1 (10)): 10%
- Percentage of HIV-1 isolates neutralized ([2]; Tier 1 + Tier 2, Clade A (8)): 25%
- Percentage of HIV-1 isolates neutralized ([2]; Tier 1 + Tier 2, Clade AD (1)): 100%
- Percentage of HIV-1 isolates neutralized ([2]; Tier 1 + Tier 2, Clade AG (16)): 50%
- Percentage of HIV-1 isolates neutralized ([2]; Tier 1 + Tier 2, Clade B (29)): 34%
- Percentage of HIV-1 isolates neutralized ([2]; Tier 1 + Tier 2, Clade BC (11)): 45%
- Percentage of HIV-1 isolates neutralized ([2]; Tier 1 + Tier 2, Clade C (26)): 27%
- Percentage of HIV-1 isolates neutralized ([2]; Tier 1 + Tier 2, Clade G (1)): 0%
- Percentage of HIV-1 isolates neutralized ([2]; Tier 2 (82)): 39%
- Percentage of HIV-1 isolates neutralized ([2]; Tier 2, Clade A (5)): 20%
- Percentage of HIV-1 isolates neutralized ([2]; Tier 2, Clade AD (1)): 100%
- Percentage of HIV-1 isolates neutralized ([2]; Tier 2, Clade AG (16)): 50%
- Percentage of HIV-1 isolates neutralized ([2]; Tier 2, Clade B (24)): 42%
- Percentage of HIV-1 isolates neutralized ([2]; Tier 2, Clade BC (11)): 45%
- Percentage of HIV-1 isolates neutralized ([2]; Tier 2, Clade C (24)): 29%
- Percentage of HIV-1 isolates neutralized ([2]; Tier 2, Clade G (1)): 0%
- Tier-2 isolates neutralized by HJ16 that were not neutralized by b12 ([2]; of 32 neutralized): 22/32
- Tier-1 viruses neutralized ([2]; panel of 10 Tier-1 isolates): 1 out of 10 and 1/10
- Tier-2 pseudoviruses neutralized ([2]; panel of 82 Tier-2 isolates): 32/82

Substance: enfuvirtide
- pIC50 ([1]; 96ZM651.2, clade C): 9.22
- pIC50 ([1]; 263-8, clade AG): 10.40
- pIC50 ([1]; AC10.0.29, clade B): 8.92
- pIC50 ([1]; BaL.26, clade B): 8.85
- pIC50 ([1]; CAP210.2.00.E8, clade C): 8.22
- pIC50 ([1]; CH064.20, clade BC): 9.15
- pIC50 ([1]; CH110.2, clade BC): 9.48
- pIC50 ([1]; CH181.12, clade BC): 8.74
- pIC50 ([1]; Du151.2, clade C): 9.22
- pIC50 ([1]; JR-FL, clade B): 8.72
- pIC50 ([1]; MW965.26, clade C): 9.22
- pIC50 ([1]; Q168.a2, clade AD): 8.24
- pIC50 ([1]; Q461.e2, clade A): 8.80
- pIC50 ([1]; Q769.d22, clade A): 8.77
- pIC50 ([1]; RHPA4259.7, clade B): 8.72
- pIC50 ([1]; SF162, clade B): 8.17
- pIC50 ([1]; SS1196.1, clade B): 9.05
- pIC50 ([1]; T257-31, clade AG): 8.56
- pIC50 ([1]; ZM53M.PB12, clade C): 8.21
- pIC50 ([1]; ZM214M.PL15, clade C): 8.35
- pIC50 ([3]; 92BR025, clade C): > 7.80
- IC90 ([3]; 92BR025, clade C): 29 nM
- pIC50 ([3]; 92RW009, clade A): > 7.80
- IC90 ([3]; 92RW009, clade A): 44 nM
- pIC50 ([3]; 92UG024, clade D): 7.80
- IC90 ([3]; 92UG024, clade D): 48 nM
- pIC50 ([3]; J213, clade B): 7.46
- IC90 ([3]; J213, clade B): 192 nM
- pIC50 ([3]; MN(P), clade B): 7.41
- IC90 ([3]; MN(P), clade B): 63 nM
- pIC50 ([3]; QH0692, clade B): 7.11
- IC90 ([3]; QH0692, clade B): 207 nM
- pIC50 ([3]; VI 191, clade A): 7.49
- IC90 ([3]; VI 191, clade A): 56 nM
- pIC50 ([2]; 96ZM651.2, clade C): 8.05
- pIC50 ([2]; 263-8, clade AG): > 8.65
- pIC50 ([2]; AC10.0.29, clade B): 8.18
- pIC50 ([2]; BaL.26, clade B): 8.18
- pIC50 ([2]; CAP210.2.00.E8, clade C): 7.87
- pIC50 ([2]; CH064.20, clade BC): > 8.65
- pIC50 ([2]; CH110.2, clade BC): > 8.65
- pIC50 ([2]; CH181.12, clade BC): > 8.65
- pIC50 ([2]; Du151.2, clade C): > 8.65
- pIC50 ([2]; Q168.a2, clade AD): 8.05
- pIC50 ([2]; Q461.e2, clade A): 8.18
- pIC50 ([2]; Q769.d22, clade A): 7.70
- pIC50 ([2]; RHPA4259.7, clade B): 8.05
- pIC50 ([2]; SF162, clade B): 7.70
- pIC50 ([2]; SS1196.1, clade B): 8.35
- pIC50 ([2]; T257-31, clade AG): > 8.65
- pIC50 ([2]; ZM53M.PB12, clade C): > 8.65
- pIC50 ([2]; ZM214M.PL15, clade C): 7.75
